Test results from US20050197350A1, “Novel quinoline, tetrahydroquinazoline, and pyrimidine derivatives and methods of treatment related to the use thereof” (TAISHO PHARMACEUTICAL CO., LTD., priority 2003, published 2005).

What follows are compounds tested on MCH receptors (assay: MCH receptor activity class (method not given)). Conditions: activity class 1-3: percent of control at 10^-7 M or IC50.
For `CN(C)c1ccnc(N[C@H]2CC[C@@H](NCCc3cccc(Cl)c3)CC2)n1` [compound 1514], the class was 3 (Class 3 The value of percent of control at 10^−7 M was more than 60% or the value of IC50 was more than 200 nM.). In the case of `CN(C)c1ccnc(N[C@H]2CC[C@@H](NCCOc3ccccc3Cl)CC2)n1` [compound 1515], the class is reported as 3 (Class 3 The value of percent of control at 10^−7 M was more than 60% or the value of IC50 was more than 200 nM.). `COC(CNC1CCC(Nc2nccc(N(C)C)n2)CC1)c1ccccc1` (stereo not shown) [compound 1517] was tested, and the class was 3 (Class 3 The value of percent of control at 10^−7 M was more than 60% or the value of IC50 was more than 200 nM.). For `CN(C)c1ccnc(N[C@H]2CC[C@@H](NCCOc3ccc(Br)cc3)CC2)n1` [compound 1518], the class was 3 (Class 3 The value of percent of control at 10^−7 M was more than 60% or the value of IC50 was more than 200 nM.). For `Cc1c(C)c(C)c(CNC2CCC(Nc3nccc(N(C)C)n3)CC2)c(C)c1C` (stereo not shown) [compound 1519], the class was 3 (Class 3 The value of percent of control at 10^−7 M was more than 60% or the value of IC50 was more than 200 nM.). `CCOc1cccc(CN[C@H]2CC[C@@H](Nc3nccc(N(C)C)n3)CC2)c1` [compound 1520] was tested, and the class was 3 (Class 3 The value of percent of control at 10^−7 M was more than 60% or the value of IC50 was more than 200 nM.).

Same assay, conditions: class by percent of control at 10^-7 M or IC50
In the case of `COc1cc(Cl)ccc1CNC[C@H]1CC[C@@H](Nc2cc(N(C)C)c3ccccc3n2)CC1` [compound 1475], the class is reported as 3 (Class 3 The value of percent of control at 10^−7 M was more than 60% or the value of IC50 was more than 200 nM.). For `Cc1ccc(CNC[C@H]2CC[C@@H](Nc3cc(N(C)C)c4ccccc4n3)CC2)cc1I` [compound 1476], the class was 3 (Class 3 The value of percent of control at 10^−7 M was more than 60% or the value of IC50 was more than 200 nM.). With `C[C@@H](CNC[C@H]1CC[C@@H](Nc2cc(N(C)C)c3ccccc3n2)CC1)N(Cc1ccccc1)Cc1ccccc1` [compound 1477] the class was 3 (Class 3 The value of percent of control at 10^−7 M was more than 60% or the value of IC50 was more than 200 nM.). For `CCCc1c(CNC[C@H]2CC[C@@H](Nc3cc(N(C)C)c4ccccc4n3)CC2)cnn1-c1ccccc1` [compound 1478], the class was 1 (Class 1: The value of percent of control at 10^−7 M was less than 40% or the value of IC50 was less than 50 nM.). With `CCCc1c(CNC[C@H]2CC[C@@H](Nc3cc(N(C)C)c4ccccc4n3)CC2)cnn1-c1ccc(Cl)cc1` [compound 1479] the class was 1 (Class 1: The value of percent of control at 10^−7 M was less than 40% or the value of IC50 was less than 50 nM.). For `CN(C)c1cc(N[C@H]2CC[C@@H](CNCCCCc3ccc([N+](=O)[O-])cc3)CC2)nc2ccccc12` [compound 1480], the class was 3 (Class 3 The value of percent of control at 10^−7 M was more than 60% or the value of IC50 was more than 200 nM.). `CN(C)c1nc(N[C@H]2CC[C@@H](NCCc3ccc(Br)cc3)CC2)nc2c1CCCC2` [compound 1481] was tested, and the class was 3 (Class 3 The value of percent of control at 10^−7 M was more than 60% or the value of IC50 was more than 200 nM.). In the case of `CN(C)c1nc(N[C@H]2CC[C@@H](NCCc3cccc(Cl)c3)CC2)nc2c1CCCC2` [compound 1482], the class is reported as 3 (Class 3 The value of percent of control at 10^−7 M was more than 60% or the value of IC50 was more than 200 nM.). With `COC(CN[C@H]1CC[C@@H](Nc2nc3c(c(N(C)C)n2)CCCC3)CC1)c1ccccc1` (stereo partly shown) [compound 1483] the class was 3 (Class 3 The value of percent of control at 10^−7 M was more than 60% or the value of IC50 was more than 200 nM.). For `COC(CNC1CCC(Nc2nc3c(c(N(C)C)n2)CCCC3)CC1)c1ccccc1` (stereo not shown) [compound 1484], the class was 3 (Class 3 The value of percent of control at 10^−7 M was more than 60% or the value of IC50 was more than 200 nM.). With `Cc1c(C)c(C)c(CNC2CCC(Nc3nc4c(c(N(C)C)n3)CCCC4)CC2)c(C)c1C` (stereo not shown) [compound 1485] the class was 2 (Class 2: The value of percent of control at 10^−7 M was from 40% to 60% or the value of IC′50 was from 50 nM to 200 nM.). For `CCOc1cccc(CN[C@H]2CC[C@@H](Nc3nc4c(c(N(C)C)n3)CCCC4)CC2)c1` [compound 1486], the class was 3 (Class 3 The value of percent of control at 10^−7 M was more than 60% or the value of IC50 was more than 200 nM.). With `CN(C)c1nc(N[C@H]2CC[C@@H](NC[C@@H](COCc3ccccc3)OCc3ccccc3)CC2)nc2c1CCCC2` [compound 1487] the class was 3 (Class 3 The value of percent of control at 10^−7 M was more than 60% or the value of IC50 was more than 200 nM.). With `COc1cc2ccccc2cc1CN[C@H]1CC[C@@H](Nc2nc3c(c(N(C)C)n2)CCCC3)CC1` [compound 1488] the class was 3 (Class 3 The value of percent of control at 10^−7 M was more than 60% or the value of IC50 was more than 200 nM.). In the case of `Cc1cccc(N(CCC#N)CCN[C@H]2CC[C@@H](Nc3nc4c(c(N(C)C)n3)CCCC4)CC2)c1` [compound 1489], the class is reported as 2 (Class 2: The value of percent of control at 10^−7 M was from 40% to 60% or the value of IC′50 was from 50 nM to 200 nM.). With `CN(C)c1nc(N[C@H]2CC[C@@H](NCCN(CCC#N)c3ccccc3)CC2)nc2c1CCCC2` [compound 1490] the class was 1 (Class 1: The value of percent of control at 10^−7 M was less than 40% or the value of IC50 was less than 50 nM.). For `Cc1ccc(S(=O)(=O)N[C@H](CN[C@H]2CC[C@@H](Nc3nc4c(c(N(C)C)n3)CCCC4)CC2)Cc2ccccc2)cc1` [compound 1491], the class was 1 (Class 1: The value of percent of control at 10^−7 M was less than 40% or the value of IC50 was less than 50 nM.). For `COc1cc(CCN[C@H]2CC[C@@H](Nc3nc4c(c(N(C)C)n3)CCCC4)CC2)cc(OC)c1` [compound 1493], the class was 2 (Class 2: The value of percent of control at 10^−7 M was from 40% to 60% or the value of IC′50 was from 50 nM to 200 nM.). `CN(C)c1nc(N[C@H]2CC[C@@H](NCCc3c(-c4ccccc4)[nH]c4ccccc34)CC2)nc2c1CCCC2` [compound 1494] was tested, and the class was 3 (Class 3 The value of percent of control at 10^−7 M was more than 60% or the value of IC50 was more than 200 nM.). In the case of `CN(C)c1nc(N[C@H]2CC[C@@H](NCC(c3ccc(Cl)cc3)c3ccc(Cl)cc3)CC2)nc2c1CCCC2` [compound 1495], the class is reported as 3 (Class 3 The value of percent of control at 10^−7 M was more than 60% or the value of IC50 was more than 200 nM.). With `CN(C)c1nc(N[C@H]2CC[C@@H](NCC3CN(C(c4ccccc4)c4ccccc4)C3)CC2)nc2c1CCCC2` [compound 1497] the class was 1 (Class 1: The value of percent of control at 10^−7 M was less than 40% or the value of IC50 was less than 50 nM.). For `CN(C)c1nc(N[C@H]2CC[C@@H](CNCCc3ccc(Br)cc3)CC2)nc2c1CCCC2` [compound 1498], the class was 3 (Class 3 The value of percent of control at 10^−7 M was more than 60% or the value of IC50 was more than 200 nM.). `COc1ccc(CCCCNC[C@H]2CC[C@@H](Nc3nc4c(c(N(C)C)n3)CCCC4)CC2)cc1` [compound 1499] was tested, and the class was 3 (Class 3 The value of percent of control at 10^−7 M was more than 60% or the value of IC50 was more than 200 nM.). For `CN(C)c1nc(N[C@H]2CC[C@@H](CNCCCCCCc3ccccc3)CC2)nc2c1CCCC2` [compound 1500], the class was 3 (Class 3 The value of percent of control at 10^−7 M was more than 60% or the value of IC50 was more than 200 nM.). `Cc1cc(C)c(CCNC[C@H]2CC[C@@H](Nc3nc4c(c(N(C)C)n3)CCCC4)CC2)c(C)c1` [compound 1501] was tested, and the class was 3 (Class 3 The value of percent of control at 10^−7 M was more than 60% or the value of IC50 was more than 200 nM.). In the case of `CN(C)c1nc(N[C@H]2CC[C@@H](CNCCCCCCCCc3ccccc3)CC2)nc2c1CCCC2` [compound 1502], the class is reported as 3 (Class 3 The value of percent of control at 10^−7 M was more than 60% or the value of IC50 was more than 200 nM.). For `CN(C)c1nc(N[C@H]2CC[C@@H](CNCCc3ccc(C(C)(C)C)cc3)CC2)nc2c1CCCC2` [compound 1503], the class was 3 (Class 3 The value of percent of control at 10^−7 M was more than 60% or the value of IC50 was more than 200 nM.). For `COc1ccccc1CCNC[C@H]1CC[C@@H](Nc2nc3c(c(N(C)C)n2)CCCC3)CC1` [compound 1504], the class was 3 (Class 3 The value of percent of control at 10^−7 M was more than 60% or the value of IC50 was more than 200 nM.). In the case of `CN(C)c1nc(N[C@H]2CC[C@@H](CNCCCOc3ccccc3)CC2)nc2c1CCCC2` [compound 1505], the class is reported as 3 (Class 3 The value of percent of control at 10^−7 M was more than 60% or the value of IC50 was more than 200 nM.). `COc1ccc(Cl)cc1CNC[C@H]1CC[C@@H](Nc2nc3c(c(N(C)C)n2)CCCC3)CC1` [compound 1506] was tested, and the class was 3 (Class 3 The value of percent of control at 10^−7 M was more than 60% or the value of IC50 was more than 200 nM.). With `COc1cc(Cl)ccc1CNC[C@H]1CC[C@@H](Nc2nc3c(c(N(C)C)n2)CCCC3)CC1` [compound 1507] the class was 3 (Class 3 The value of percent of control at 10^−7 M was more than 60% or the value of IC50 was more than 200 nM.). For `Cc1ccc(CNC[C@H]2CC[C@@H](Nc3nc4c(c(N(C)C)n3)CCCC4)CC2)cc1I` [compound 1508], the class was 3 (Class 3 The value of percent of control at 10^−7 M was more than 60% or the value of IC50 was more than 200 nM.). For `C[C@@H](CNC[C@H]1CC[C@@H](Nc2nc3c(c(N(C)C)n2)CCCC3)CC1)N(Cc1ccccc1)Cc1ccccc1` [compound 1509], the class was 3 (Class 3 The value of percent of control at 10^−7 M was more than 60% or the value of IC50 was more than 200 nM.). With `CCCc1c(CNC[C@H]2CC[C@@H](Nc3nc4c(c(N(C)C)n3)CCCC4)CC2)cnn1-c1ccccc1` [compound 1510] the class was 1 (Class 1: The value of percent of control at 10^−7 M was less than 40% or the value of IC50 was less than 50 nM.). With `CCCc1c(CNC[C@H]2CC[C@@H](Nc3nc4c(c(N(C)C)n3)CCCC4)CC2)cnn1-c1ccc(Cl)cc1` [compound 1511] the class was 1 (Class 1: The value of percent of control at 10^−7 M was less than 40% or the value of IC50 was less than 50 nM.). `CN(C)c1nc(N[C@H]2CC[C@@H](CNCCCCc3ccc([N+](=O)[O-])cc3)CC2)nc2c1CCCC2` [compound 1512] was tested, and the class was 3 (Class 3 The value of percent of control at 10^−7 M was more than 60% or the value of IC50 was more than 200 nM.). For `CN(C)c1ccnc(N[C@H]2CC[C@@H](NCCc3ccc(Br)cc3)CC2)n1` [compound 1513], the class was 3 (Class 3 The value of percent of control at 10^−7 M was more than 60% or the value of IC50 was more than 200 nM.).
